We go through 2 compounds from publication PMC10818931, “In Vitro Evaluation of Drug–Drug Interaction Potential of Epetraborole, a Novel Bacterial Leucyl-tRNA Synthetase Inhibitor” (Pharmaceuticals, 2024).

Some results are limits rather than exact numbers.

What all share (assay type): in vitro ADME
Data set [1] addresses T1, MATE1 (Homo sapiens, UniProt Q96FL8).
T1 construct: host or cells: MDCK
T1 sequence (Q96FL8 1-570): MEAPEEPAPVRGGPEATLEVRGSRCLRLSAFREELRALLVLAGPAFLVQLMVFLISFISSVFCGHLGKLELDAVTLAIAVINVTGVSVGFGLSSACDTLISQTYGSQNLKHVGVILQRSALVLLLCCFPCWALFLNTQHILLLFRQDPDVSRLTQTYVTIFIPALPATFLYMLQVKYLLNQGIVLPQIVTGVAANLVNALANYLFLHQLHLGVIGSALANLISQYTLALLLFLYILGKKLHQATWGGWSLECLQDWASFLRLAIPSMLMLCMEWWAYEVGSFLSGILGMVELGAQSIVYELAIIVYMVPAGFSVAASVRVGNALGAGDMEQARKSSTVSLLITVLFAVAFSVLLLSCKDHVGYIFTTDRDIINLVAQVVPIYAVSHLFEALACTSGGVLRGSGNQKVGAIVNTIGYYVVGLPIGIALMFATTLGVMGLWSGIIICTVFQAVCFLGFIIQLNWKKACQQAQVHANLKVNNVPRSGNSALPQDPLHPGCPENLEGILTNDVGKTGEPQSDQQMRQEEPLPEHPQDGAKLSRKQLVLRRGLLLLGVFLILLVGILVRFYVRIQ
Nature of the data set: Transporter inhibition. The note with it: read-out: as an Inhibitor, IC50.

Data set [2] addresses P-gp (Homo sapiens, UniProt P08183). Nature of the data set: Substrate potential for P-gp, bidirectional permeability in MDR1-MDCK. The note with it: for Concentration in the receiver compartment: 5 µM, MDR1-MDCK and MDCK cells, A to B and B to A, Papp and efflux ratio could not be calculated; for as a Substrate: P-gp. As for the experimental part: In vitro evaluation of the substrate potential of EBO (5 µM) and M3 (5 µM) for P-gp was conducted in single transporter-transfected and non-transfected Madin–Darby canine kidney (MDCK) cells monolayers according to Absorption Systems (Exton, PA, USA) standard operating procedures (SOP). The integrity of each cell monolayer was evaluated by lucifer yellow presence.

In data set [3] the target is T2, OATP1B3 (Homo sapiens, UniProt Q9NPD5).
T2 construct: host or cells: MDCK
T2 sequence (Q9NPD5 1-702): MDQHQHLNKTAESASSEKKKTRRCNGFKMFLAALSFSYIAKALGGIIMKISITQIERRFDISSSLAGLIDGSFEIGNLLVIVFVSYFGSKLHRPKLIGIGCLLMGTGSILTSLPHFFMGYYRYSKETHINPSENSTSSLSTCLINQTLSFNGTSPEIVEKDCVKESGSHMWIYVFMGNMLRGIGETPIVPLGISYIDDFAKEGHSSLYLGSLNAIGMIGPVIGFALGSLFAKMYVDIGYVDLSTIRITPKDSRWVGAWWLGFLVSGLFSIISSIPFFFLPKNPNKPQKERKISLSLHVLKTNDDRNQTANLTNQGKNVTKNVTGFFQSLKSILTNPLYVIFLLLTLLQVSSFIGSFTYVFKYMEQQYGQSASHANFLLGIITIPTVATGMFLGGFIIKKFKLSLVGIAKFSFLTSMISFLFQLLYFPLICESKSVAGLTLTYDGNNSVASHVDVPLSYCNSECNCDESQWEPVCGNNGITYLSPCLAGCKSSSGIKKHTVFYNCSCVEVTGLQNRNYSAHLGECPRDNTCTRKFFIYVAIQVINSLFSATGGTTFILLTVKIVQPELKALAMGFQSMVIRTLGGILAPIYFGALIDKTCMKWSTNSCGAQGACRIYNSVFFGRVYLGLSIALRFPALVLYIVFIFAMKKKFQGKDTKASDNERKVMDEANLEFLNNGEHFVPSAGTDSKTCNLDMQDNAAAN
In words: Uptake transporter inhibition in transfected HEK 293 or MDCK cells. As for the experimental part: (§1) Cell monolayers were preincubated (37 °C) for 15 to 30 min in a transport medium containing the target concentration of EBO or a specific inhibitor without substrate. Following the removal of preincubation solutions, appropriate working solutions containing EBO at the target concentration plus the probe substrate were added to the wells in triplicate. Separate sets of triplicate wells were designated for probe substrate only and probe substrate plus the specific inhibitors, to determine the maximal uptake rate and maximal inhibition of uptake, respectively. After incubation at 37 °C for each transporter, the working solution was removed from each well and the experiment was stopped by washing three times with cold (4 °C) DPBS. Depending on the substrate label, cells were either lysed for the analysis of total radioactivity (liquid scintillation counter) or LC-MS/MS methods. For measuring relative fluorescence (FLUOstar Galaxy, Cary, NC, USA), cells were not lysed.

The target in data set [4] is T3, OAT1 (Homo sapiens, UniProt Q4U2R8).
T3 construct: host or cells: MDCK
T3 sequence (Q4U2R8 1-563): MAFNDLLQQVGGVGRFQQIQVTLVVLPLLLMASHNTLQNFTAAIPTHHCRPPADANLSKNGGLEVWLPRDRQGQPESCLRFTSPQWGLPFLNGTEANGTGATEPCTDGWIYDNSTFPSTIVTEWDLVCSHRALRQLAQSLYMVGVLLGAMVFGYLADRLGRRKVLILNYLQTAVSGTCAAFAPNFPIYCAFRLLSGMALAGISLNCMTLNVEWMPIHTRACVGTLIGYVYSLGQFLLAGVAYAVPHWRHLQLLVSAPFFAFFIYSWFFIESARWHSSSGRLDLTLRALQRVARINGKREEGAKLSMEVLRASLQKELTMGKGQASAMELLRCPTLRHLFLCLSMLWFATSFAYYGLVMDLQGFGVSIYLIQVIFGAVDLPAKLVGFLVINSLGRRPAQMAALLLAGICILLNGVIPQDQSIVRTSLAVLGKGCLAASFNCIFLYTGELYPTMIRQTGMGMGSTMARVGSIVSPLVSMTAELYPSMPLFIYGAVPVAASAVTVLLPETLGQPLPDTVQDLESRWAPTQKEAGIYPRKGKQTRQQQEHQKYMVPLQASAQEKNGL
The description is as above. As to conditions: read-out: as an Inhibitor, IC50. As for the experimental part:
as §1

As a reminder, the IC50 is the concentration at which inhibition is half-maximal. By inhibition is commonly meant the drop in the measured response relative to a control, in per cent.

P-gp, sequence (P08183 whole entry): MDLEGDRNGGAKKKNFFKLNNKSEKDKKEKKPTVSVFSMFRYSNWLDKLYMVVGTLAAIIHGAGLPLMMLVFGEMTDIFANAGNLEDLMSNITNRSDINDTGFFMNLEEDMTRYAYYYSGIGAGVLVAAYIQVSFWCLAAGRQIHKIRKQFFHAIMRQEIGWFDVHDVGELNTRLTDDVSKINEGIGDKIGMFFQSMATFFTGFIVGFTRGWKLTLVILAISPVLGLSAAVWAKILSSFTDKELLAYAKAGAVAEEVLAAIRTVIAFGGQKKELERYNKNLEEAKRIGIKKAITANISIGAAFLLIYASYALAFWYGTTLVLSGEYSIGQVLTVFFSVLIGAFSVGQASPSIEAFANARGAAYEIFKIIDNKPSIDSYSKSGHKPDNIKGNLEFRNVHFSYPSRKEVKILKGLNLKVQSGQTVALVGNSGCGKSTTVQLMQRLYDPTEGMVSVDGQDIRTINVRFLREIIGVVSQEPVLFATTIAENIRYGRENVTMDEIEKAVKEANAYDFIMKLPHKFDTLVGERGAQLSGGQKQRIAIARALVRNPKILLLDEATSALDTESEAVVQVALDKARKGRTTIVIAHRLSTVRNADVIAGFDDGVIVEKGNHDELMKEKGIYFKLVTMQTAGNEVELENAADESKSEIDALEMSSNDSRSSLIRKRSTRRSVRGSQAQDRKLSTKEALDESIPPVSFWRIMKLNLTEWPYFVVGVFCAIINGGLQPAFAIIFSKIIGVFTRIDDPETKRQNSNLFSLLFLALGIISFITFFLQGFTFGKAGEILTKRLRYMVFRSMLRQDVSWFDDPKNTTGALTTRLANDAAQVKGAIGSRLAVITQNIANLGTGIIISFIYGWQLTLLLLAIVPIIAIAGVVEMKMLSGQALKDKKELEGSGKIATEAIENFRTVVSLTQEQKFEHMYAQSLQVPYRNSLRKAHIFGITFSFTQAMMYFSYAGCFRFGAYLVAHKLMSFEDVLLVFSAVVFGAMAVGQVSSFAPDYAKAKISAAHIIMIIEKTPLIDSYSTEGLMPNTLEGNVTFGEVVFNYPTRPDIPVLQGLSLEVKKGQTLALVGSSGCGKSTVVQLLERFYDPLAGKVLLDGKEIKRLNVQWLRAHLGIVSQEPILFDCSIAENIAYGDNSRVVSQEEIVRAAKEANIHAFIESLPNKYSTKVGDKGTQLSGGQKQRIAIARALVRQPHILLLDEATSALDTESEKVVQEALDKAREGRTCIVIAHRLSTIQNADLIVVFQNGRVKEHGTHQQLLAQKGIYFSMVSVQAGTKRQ

On to `NC[C@H]1OB(O)c2c(OCCCO)cccc21` [EBO, Epetraborole], for which the IC50 in data set [1] is greater than 100 µM. Further, in data set [2], the “Concentration in the receiver compartment” value is on record as “below the lower limit of quantification” and the “as a Substrate” value is reported as “No”. In addition, the inhibition at 500 µM in data set [3] (human, HEK 293 or MDCK cells transfected with OATP1B3, at 500 µM) was 21%. Besides, in data set [4], the concentration for half-maximal inhibition (IC50) is greater than 1000 µM.

Regarding `NC[C@H]1OB(O)c2c(OCCC(=O)O)cccc21` [M3], the IC50 was greater than 250 µM in data set [1]; greater than 250 µM in data set [3] (read-out: as an Inhibitor, IC50); greater than 250 µM in data set [4]. Also, the “Concentration in the receiver compartment” value in data set [2] was “below the lower limit of quantification”. Moreover, the “as a Substrate” value in data set [2] is reported as “No”.
